Here are results for 7 compounds from PubChem BioAssay (NCI).

Some test systems named below: A549 NSCLC; ACHN renal; BT-549 breast; HS 578T breast; MDA-MB-231 breast; MOLT-4 leukemia; NCI/ADR-RES ovarian; SF-268 CNS; TK-10 renal; UACC-62 melanoma.
What all share (test): NCI anticancer screen, dose series, 48 h

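Exposure lasted 48 hours, with cells grown in 96-well plates and compounds tested at five concentrations. GI50: concentration for 50% inhibition of growth. At the TGI there is no net growth.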

Regarding `Cc1cc(-c2nc(-c3ccc(OC(F)(F)F)cc3)no2)nn1Cc1ccnc(N2CCN(C3CC3)CC2)c1`, the GI50 in the assay on A549 NSCLC is 2.55 µM; in the assay with ACHN renal, 3.1 µM; with HS 578T breast, greater than 38.4 µM; in the assay on MDA-MB-231 breast, 12.6 µM; in the assay with MOLT-4 leukemia, 3.73 µM; in the assay with NCI/ADR-RES ovarian, 0.726 µM. For the same compound, the values for the GI50 in the assay with SF-268 CNS, in the assay on TK-10 renal and in the assay on UACC-62 melanoma were greater than 42.7 µM, 11.2 µM and 4.23 µM, respectively. Also, the TGI with A549 NSCLC is greater than 100 µM; with ACHN renal, greater than 100 µM; in the assay with BT-549 breast, greater than 52.6 µM; in the assay on HS 578T breast, greater than 72.6 µM; in the assay on MDA-MB-231 breast, greater than 78.7 µM; in the assay on MOLT-4 leukemia it was 84.8 µM. Besides, the TGI is greater than 100 µM in the assay with NCI/ADR-RES ovarian, greater than 100 µM in the assay with SF-268 CNS, greater than 100 µM in the assay with TK-10 renal and greater than 49.1 µM in the assay with UACC-62 melanoma.

Turning to `Nc1ccccc1NC(=O)c1ccc(CN2CCC/C(=C\c3cccc(Cl)c3)C2=O)cc1`, the GI50 with A549 NSCLC was 1.45 µM; with ACHN renal it was 0.129 µM; in the assay on BT-549 breast, 1.4 µM; in the assay on HS 578T breast it was 0.321 µM; with MDA-MB-231 breast it was 0.584 µM; in the assay on MOLT-4 leukemia, 0.474 µM. Also, the GI50 in the assay with NCI/ADR-RES ovarian is 0.198 µM; with SF-268 CNS, 1.41 µM; in the assay on TK-10 renal, 1.11 µM; in the assay on UACC-62 melanoma it was 0.0517 µM. For the same compound, the TGI is 75.7 µM in the assay with A549 NSCLC; 6.32 µM in the assay on ACHN renal; 5.52 µM in the assay with BT-549 breast; greater than 100 µM in the assay on HS 578T breast; 7.93 µM in the assay with MDA-MB-231 breast; greater than 100 µM with MOLT-4 leukemia. For the same compound, the TGI in the assay on NCI/ADR-RES ovarian is 6.09 µM; with SF-268 CNS, 6.74 µM; in the assay with TK-10 renal it was 5.88 µM; with UACC-62 melanoma, 14.6 µM.

On to `CC[CH2][Sn]([Cl])([Cl])[CH2]CC`, for which the GI50 is 18.2 µM in the assay on A549 NSCLC; 6.88 µM in the assay on ACHN renal; 7.87 µM in the assay on BT-549 breast; 6.13 µM with HS 578T breast; 5.16 µM in the assay with MDA-MB-231 breast; 5.35 µM in the assay with MOLT-4 leukemia. The GI50 with NCI/ADR-RES ovarian is 15.8 µM; with SF-268 CNS, 9.63 µM; in the assay with TK-10 renal, 3.16 µM; in the assay with UACC-62 melanoma, 4.19 µM. Moreover, the TGI in the assay with A549 NSCLC was 34.3 µM; with ACHN renal, 20 µM; with BT-549 breast, 20.5 µM; in the assay with HS 578T breast, 28.4 µM; in the assay on MDA-MB-231 breast, 18.9 µM; with MOLT-4 leukemia, greater than 100 µM. Moreover, the TGI in the assay with NCI/ADR-RES ovarian was 30.7 µM; in the assay with SF-268 CNS it was 22.5 µM; in the assay with TK-10 renal, 11.1 µM; with UACC-62 melanoma, 17.5 µM.

Take `CNC(C)C(=O)N[C@H](C(=O)N1CCC[C@@H]1CN(CCc1ccccc1)C(=O)C(F)(F)F)[C@H](C)OCC#CC#CCO[C@H](C)[C@H](NC(=O)[C@H](C)NC)C(=O)N1CCC[C@H]1CN(CCc1ccccc1)C(=O)C(F)(F)F` (stereo partly drawn): the GI50 in the assay with A549 NSCLC is 1.72 µM; in the assay on ACHN renal it was 1.85 µM; in the assay with BT-549 breast, less than 0.01 µM; with HS 578T breast, 1.55 µM; in the assay with MDA-MB-231 breast, less than 0.01 µM; in the assay with MOLT-4 leukemia, 1.75 µM. Also, the GI50 in the assay on NCI/ADR-RES ovarian was 8.19 µM; in the assay on SF-268 CNS it was 1.94 µM; with TK-10 renal it was 2.22 µM; in the assay on UACC-62 melanoma, 1.77 µM. In addition, the TGI with A549 NSCLC was 3.27 µM; in the assay with ACHN renal it was 3.44 µM; with BT-549 breast it was 1.69 µM; with HS 578T breast, 3.65 µM; in the assay with MDA-MB-231 breast, less than 0.01 µM; with MOLT-4 leukemia, 4.1 µM. The TGI was found to be 27.3 µM in the assay with NCI/ADR-RES ovarian, 3.57 µM in the assay with SF-268 CNS, 3.8 µM with TK-10 renal and 3.24 µM in the assay on UACC-62 melanoma.

In the case of `COc1ccc(/C=C\c2cc(OC)c(OC)c(OC)c2)cc1OC(=O)c1cccc(Cn2cc(CCOC(=O)c3cccc(Cn4nnc5c4C(=O)c4ccccc4C5=O)c3)nn2)c1`, the GI50 in the assay on A549 NSCLC was 0.0392 µM; in the assay with ACHN renal, 0.0153 µM; in the assay on BT-549 breast, less than 0.01 µM; in the assay with HS 578T breast it was less than 0.01 µM; in the assay on MDA-MB-231 breast, less than 0.01 µM; in the assay with MOLT-4 leukemia, 0.0129 µM. Also, the GI50 in the assay on NCI/ADR-RES ovarian is less than 0.01 µM; in the assay on SF-268 CNS, 0.0395 µM; with TK-10 renal it was 9.58 µM. The TGI with A549 NSCLC was greater than 37.9 µM; in the assay with ACHN renal, greater than 84.5 µM; with BT-549 breast, 1.35 µM; with HS 578T breast, 21.4 µM; with MDA-MB-231 breast, 16.3 µM; in the assay on MOLT-4 leukemia it was greater than 100 µM. Further, the TGI was determined as 0.421 µM with NCI/ADR-RES ovarian, 35 µM in the assay with SF-268 CNS, 33.5 µM in the assay with TK-10 renal and 24.8 µM with UACC-62 melanoma.

`COC(=O)[C@H](CC(C)C)NC(=O)NC(=O)NC(=O)CI`: the GI50 is 20.3 µM in the assay on A549 NSCLC; 1.78 µM with ACHN renal; 5.32 µM in the assay on BT-549 breast; 24.3 µM in the assay with HS 578T breast; 10.2 µM in the assay on MDA-MB-231 breast; 2.1 µM with MOLT-4 leukemia. In addition, the GI50 is 25.5 µM in the assay with NCI/ADR-RES ovarian, 11.3 µM with SF-268 CNS, 1.72 µM in the assay on TK-10 renal and 13.4 µM with UACC-62 melanoma. For the same compound, the TGI with A549 NSCLC is 39.6 µM; in the assay on ACHN renal, 3.38 µM; in the assay with BT-549 breast it was 17.7 µM; in the assay with HS 578T breast, 77.4 µM; in the assay with MDA-MB-231 breast, 25.8 µM; with MOLT-4 leukemia, 5.12 µM. Further, the TGI came to 74.1 µM in the assay on NCI/ADR-RES ovarian, 29.1 µM with SF-268 CNS, 3.62 µM with TK-10 renal and 28.2 µM in the assay on UACC-62 melanoma.

Turning to `COc1ccc(/C=C/c2cc(N3CCOCC3)c3cc(F)c(F)cc3n2)cc1OC`, the GI50 with A549 NSCLC is 1.67 µM; in the assay on ACHN renal it was 0.615 µM; in the assay with BT-549 breast it was 0.777 µM; in the assay on HS 578T breast, 2.37 µM; in the assay on MDA-MB-231 breast it was 0.483 µM; in the assay on MOLT-4 leukemia, 0.624 µM. For the same compound, the GI50 is 0.432 µM in the assay with NCI/ADR-RES ovarian, 0.775 µM in the assay on SF-268 CNS, 1.14 µM in the assay with TK-10 renal and 0.436 µM in the assay on UACC-62 melanoma. Also, the TGI with A549 NSCLC amounted to 8.99 µM; in the assay on ACHN renal, 12.4 µM; in the assay with BT-549 breast, 5.46 µM; with HS 578T breast it was 28.8 µM; with MDA-MB-231 breast it was 4.66 µM; in the assay with MOLT-4 leukemia it was 11 µM. For the same compound, the TGI in the assay on NCI/ADR-RES ovarian came out at 3.03 µM; in the assay with SF-268 CNS it was 16.5 µM; with TK-10 renal it was 10.2 µM; in the assay with UACC-62 melanoma, 2.24 µM.
